For data set [1], the system named is HEI-OC1 cells. The data set can be described thus: Release of mitochondrial cyt c in HEI-OC1 cells with CisPt (flow cytometry). In kind it is cell-based. Conditions: HEI-OC1 cells; after CisPt alone or pre-incubated with LPT99. On the procedure: Flow cytometry was also used to characterize the effect of LPT99 in the release of mitochondrial cyt c in HEI-OC1 cells in vitro with CisPt prevention. Results
The effect of LPT99 on proliferation of non-apoptotic cells was studied. A549 cells were cultured in the presence of LPT99 for up to 6 days; the cell number was monitored by flow cytometry, and doubling time was calculated.

Data set [2] relates to HEI-OC1 cells. The data set can be described thus: HEI-OC1 cell viability with CisPt. The class given is cell-based. The conditions noted are these: CisPt 0 to 5 μg/mL.
A short description of data set [3]: GLP auditory safety study in rats after single TT administration. On the procedure: The study consisted of 10 groups of rats: 6 groups for toxicology (Groups 1 to 6, 20 males and 20 females per group), and 4 groups for toxicokinetics (Groups 7 to 10, 6 males and 6 females per group).
All animals were assessed weekly for body weights and qualitative food consumption. In addition, otoscopic evaluation of the dosing sites (tympanic membrane, Groups 1 to 6) and ABR testing for hearing function were performed at predosing; and on Days 1, 7, and/or 14. Animals in the toxicology groups (Groups 1 to 6) were sacrificed on Day 1 (10 males and 10 females per group) and Day 14 (the remaining 10 males and 10 females per group). At necropsy, terminal blood samples were tested for hematology, serum chemistry, and coagulation parameters. Gross observations were recorded, and selected organs were weighed. One ear per animal in Groups 1 to 5 was collected and processed for cytocochleogram assessment.

As for `N.N.[Cl][Pt][Cl]` [CisPt, cisplatin, reference compound], the “release of mitochondrial cyt c” value in the data set on HEI-OC1 cells [1] was 28% ±6.6%. The “HEI-OC1 cell viability IC50 of CisPt” value with HEI-OC1 cells [2] worked out at 4.47 ± 1.94 µg/mL.

For the compound gentamicin [reference compound], the weight-normalized heart weights result in data set [3] (Day 14, males, 400 mg/mL gentamicin vs saline controls, p≥0.05) was “increased weight-normalized heart weights”. Besides, the “otoscopic scores (erythema, edema, wounds) of tympanic membranes” value in data set [3] (Days 1, 7, 14 vs control) was “increases in otoscopic scores”.

Source of the values: patent publication US20220062166A1, “Self-Gelling Solutions for Administration of Therapeutics to the Inner Ear” (Spiral Therapeutics, Inc., priority 2019, published 2022).
